Literature values in US20060147533A1, “Antimicrobial biomaterial for blood bags” (priority 2004, published 2006).

Settings: humans; recoveries reported following ingestion of higher doses

Question: For `O=[N+]([O-])[O-].[Ag+]` [silver nitrate], which estimated fatal dose is on record?
Answer: 10 grams
